Source: patent publication US20090035313A1, “Compounds” (Pfizer Inc., priority 2003, published 2009)

System: TNFα release from human peripheral blood mononuclear cells
Test: Inhibition of LPS-stimulated TNFα release from human peripheral blood mononuclear cells (TNFα screen, ELISA)
Assay type: cell-based
Conditions: LPS-stimulated human PBMC, 18 hours incubation, TNFα in supernatant by ELISA
Protocol: Venous blood is collected from healthy volunteers and the mononuclear cells purified by centrifugation through Histopaque (Ficoll) cushions. TNFα production from these cells is stimulated by addition of lipopolysaccharide. After 18 hours incubation in the presence of LPS, the cell supernatant is removed and the concentration of TNFα in the supernatant determined by ELISA.

COc1ccc2cccnc2c1S(=O)(=O)N[C@H]1CC[C@@H](NC(=O)c2cccnc2OC2CCSCC2)CC1 [Example 29, Syn-N-[4-(7-methoxy-quinoline-8-sulfonylamino)-cyclohexyl]-2-(tetrahydro-thiopyran-4-yloxy)-nicotinamide]
IC50: 0.4 nM
